What all share (assay): Ray2010 Assay 74
For one test, the target named is T1, D(4) dopamine receptor (Homo sapiens, UniProt P21917).
T1 sequence (P21917 whole entry): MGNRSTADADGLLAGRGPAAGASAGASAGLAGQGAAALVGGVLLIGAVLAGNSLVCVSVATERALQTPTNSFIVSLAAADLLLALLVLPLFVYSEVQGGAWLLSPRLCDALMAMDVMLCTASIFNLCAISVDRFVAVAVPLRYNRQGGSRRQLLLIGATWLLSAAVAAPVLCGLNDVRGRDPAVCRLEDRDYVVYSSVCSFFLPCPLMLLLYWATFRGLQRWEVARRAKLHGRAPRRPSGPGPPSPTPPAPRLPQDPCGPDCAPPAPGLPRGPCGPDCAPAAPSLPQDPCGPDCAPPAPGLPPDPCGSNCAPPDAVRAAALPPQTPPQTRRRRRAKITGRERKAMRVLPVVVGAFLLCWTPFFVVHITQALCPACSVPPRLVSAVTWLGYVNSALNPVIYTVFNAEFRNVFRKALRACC
The text has this: (§1) Table S2 shows raw Ki data for the current study combined with data collected from the literature for the ten additional compounds.

For test [1], the target named is T2, Muscarinic acetylcholine receptor M2 (Homo sapiens, UniProt P08172).
T2 sequence (P08172 whole entry): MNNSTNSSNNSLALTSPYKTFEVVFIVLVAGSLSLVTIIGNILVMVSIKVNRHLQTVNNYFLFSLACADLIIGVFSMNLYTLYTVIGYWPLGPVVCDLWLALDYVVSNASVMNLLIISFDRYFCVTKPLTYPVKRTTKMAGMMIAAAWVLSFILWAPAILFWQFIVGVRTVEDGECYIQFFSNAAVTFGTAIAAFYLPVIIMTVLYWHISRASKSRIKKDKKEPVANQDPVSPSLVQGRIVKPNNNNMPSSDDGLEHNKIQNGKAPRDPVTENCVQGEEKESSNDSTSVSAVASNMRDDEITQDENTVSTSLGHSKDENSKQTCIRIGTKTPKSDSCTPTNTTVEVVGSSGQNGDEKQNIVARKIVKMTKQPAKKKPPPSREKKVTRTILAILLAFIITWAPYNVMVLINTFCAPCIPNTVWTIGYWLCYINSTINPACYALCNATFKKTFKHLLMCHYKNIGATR
Description: as §1

In test [2] the target is Sodium-dependent noradrenaline transporter (Homo sapiens, UniProt P23975).
Sodium-dependent noradrenaline transporter, sequence (P23975 whole entry): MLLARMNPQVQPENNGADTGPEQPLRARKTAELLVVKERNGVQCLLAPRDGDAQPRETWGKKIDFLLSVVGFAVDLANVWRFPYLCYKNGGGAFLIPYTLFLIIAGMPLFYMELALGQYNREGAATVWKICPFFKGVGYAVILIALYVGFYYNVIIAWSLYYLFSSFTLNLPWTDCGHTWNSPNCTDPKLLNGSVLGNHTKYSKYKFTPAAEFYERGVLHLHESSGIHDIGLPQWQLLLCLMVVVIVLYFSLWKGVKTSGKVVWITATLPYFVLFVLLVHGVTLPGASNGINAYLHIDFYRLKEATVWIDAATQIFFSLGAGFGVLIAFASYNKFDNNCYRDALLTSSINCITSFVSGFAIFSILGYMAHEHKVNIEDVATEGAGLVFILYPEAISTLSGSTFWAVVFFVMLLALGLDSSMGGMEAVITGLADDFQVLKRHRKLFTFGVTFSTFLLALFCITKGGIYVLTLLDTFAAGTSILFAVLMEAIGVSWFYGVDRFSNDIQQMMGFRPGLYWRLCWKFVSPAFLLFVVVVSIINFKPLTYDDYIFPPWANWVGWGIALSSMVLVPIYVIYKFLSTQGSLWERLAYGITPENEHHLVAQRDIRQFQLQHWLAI
Description: as §1

Test [3] concerns the target 5-hydroxytryptamine receptor 1D (Homo sapiens, UniProt P28221).
Description: as §1

For another test, the target named is Histamine H4 receptor (Homo sapiens, UniProt Q9H3N8).
Histamine H4 receptor, sequence (Q9H3N8 whole entry): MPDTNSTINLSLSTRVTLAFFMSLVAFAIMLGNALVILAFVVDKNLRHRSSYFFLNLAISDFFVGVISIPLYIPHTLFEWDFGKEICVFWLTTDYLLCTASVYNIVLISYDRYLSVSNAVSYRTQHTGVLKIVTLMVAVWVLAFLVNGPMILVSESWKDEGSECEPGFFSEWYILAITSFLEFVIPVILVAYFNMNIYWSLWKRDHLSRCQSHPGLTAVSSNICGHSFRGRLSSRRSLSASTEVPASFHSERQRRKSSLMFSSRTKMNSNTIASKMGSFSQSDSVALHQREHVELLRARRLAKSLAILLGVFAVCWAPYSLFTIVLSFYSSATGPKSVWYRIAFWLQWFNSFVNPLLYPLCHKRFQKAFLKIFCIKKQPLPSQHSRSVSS
Description: as §1

A further test deals with Histamine H1 receptor (Homo sapiens, UniProt P35367).
Histamine H1 receptor, sequence (P35367 whole entry): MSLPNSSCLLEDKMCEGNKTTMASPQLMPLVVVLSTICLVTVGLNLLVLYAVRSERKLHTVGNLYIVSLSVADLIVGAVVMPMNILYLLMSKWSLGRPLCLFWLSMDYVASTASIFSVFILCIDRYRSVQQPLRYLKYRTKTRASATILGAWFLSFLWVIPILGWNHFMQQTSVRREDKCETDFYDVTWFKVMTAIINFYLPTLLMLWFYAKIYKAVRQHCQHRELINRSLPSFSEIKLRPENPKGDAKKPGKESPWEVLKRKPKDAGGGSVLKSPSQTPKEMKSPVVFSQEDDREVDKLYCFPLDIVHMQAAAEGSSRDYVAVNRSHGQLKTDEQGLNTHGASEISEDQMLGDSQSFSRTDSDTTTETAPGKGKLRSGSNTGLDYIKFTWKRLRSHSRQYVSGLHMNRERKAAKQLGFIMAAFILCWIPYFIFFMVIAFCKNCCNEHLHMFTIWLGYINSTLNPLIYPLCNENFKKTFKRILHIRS
Description: as §1

Test [4] addresses T3, Alpha-1B adrenergic receptor (Homo sapiens, UniProt P35368).
T3 sequence (P35368 whole entry): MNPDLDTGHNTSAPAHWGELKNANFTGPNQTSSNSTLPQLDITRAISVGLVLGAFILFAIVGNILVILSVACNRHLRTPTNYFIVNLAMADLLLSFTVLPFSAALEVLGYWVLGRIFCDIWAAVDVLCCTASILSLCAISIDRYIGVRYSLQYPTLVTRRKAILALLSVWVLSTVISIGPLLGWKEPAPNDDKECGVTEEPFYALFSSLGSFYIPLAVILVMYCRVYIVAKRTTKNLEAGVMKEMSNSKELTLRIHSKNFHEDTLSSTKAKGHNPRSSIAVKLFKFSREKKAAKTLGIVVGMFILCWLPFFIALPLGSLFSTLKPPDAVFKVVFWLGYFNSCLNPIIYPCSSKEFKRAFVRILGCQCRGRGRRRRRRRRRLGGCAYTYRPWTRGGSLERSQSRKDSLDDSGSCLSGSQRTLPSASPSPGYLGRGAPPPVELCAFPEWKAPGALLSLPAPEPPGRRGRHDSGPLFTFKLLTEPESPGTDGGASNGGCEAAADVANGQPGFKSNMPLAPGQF
Description: as §1

Test [5] addresses Sodium-dependent serotonin transporter (Homo sapiens, UniProt P31645).
Description: as §1

In test [6] the target is Delta-type opioid receptor (Homo sapiens, UniProt P41143).
Delta-type opioid receptor, sequence (P41143 whole entry): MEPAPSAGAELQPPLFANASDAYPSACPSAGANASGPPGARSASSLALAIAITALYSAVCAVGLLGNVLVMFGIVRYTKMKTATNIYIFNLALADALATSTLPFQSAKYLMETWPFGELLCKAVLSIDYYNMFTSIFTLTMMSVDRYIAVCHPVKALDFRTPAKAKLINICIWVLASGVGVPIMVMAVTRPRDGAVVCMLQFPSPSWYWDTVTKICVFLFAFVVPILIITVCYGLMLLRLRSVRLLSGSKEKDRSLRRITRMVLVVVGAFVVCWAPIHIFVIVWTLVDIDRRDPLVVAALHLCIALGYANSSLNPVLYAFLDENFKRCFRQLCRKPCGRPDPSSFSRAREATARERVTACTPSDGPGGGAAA
Description: as §1

For test [7], the target named is 5-hydroxytryptamine receptor 5A (Homo sapiens, UniProt P47898).
Description: as §1

For test [8], the target named is Glutamate receptor ionotropic, NMDA 2A (Homo sapiens, UniProt Q12879).
Glutamate receptor ionotropic, NMDA 2A, sequence (Q12879 whole entry): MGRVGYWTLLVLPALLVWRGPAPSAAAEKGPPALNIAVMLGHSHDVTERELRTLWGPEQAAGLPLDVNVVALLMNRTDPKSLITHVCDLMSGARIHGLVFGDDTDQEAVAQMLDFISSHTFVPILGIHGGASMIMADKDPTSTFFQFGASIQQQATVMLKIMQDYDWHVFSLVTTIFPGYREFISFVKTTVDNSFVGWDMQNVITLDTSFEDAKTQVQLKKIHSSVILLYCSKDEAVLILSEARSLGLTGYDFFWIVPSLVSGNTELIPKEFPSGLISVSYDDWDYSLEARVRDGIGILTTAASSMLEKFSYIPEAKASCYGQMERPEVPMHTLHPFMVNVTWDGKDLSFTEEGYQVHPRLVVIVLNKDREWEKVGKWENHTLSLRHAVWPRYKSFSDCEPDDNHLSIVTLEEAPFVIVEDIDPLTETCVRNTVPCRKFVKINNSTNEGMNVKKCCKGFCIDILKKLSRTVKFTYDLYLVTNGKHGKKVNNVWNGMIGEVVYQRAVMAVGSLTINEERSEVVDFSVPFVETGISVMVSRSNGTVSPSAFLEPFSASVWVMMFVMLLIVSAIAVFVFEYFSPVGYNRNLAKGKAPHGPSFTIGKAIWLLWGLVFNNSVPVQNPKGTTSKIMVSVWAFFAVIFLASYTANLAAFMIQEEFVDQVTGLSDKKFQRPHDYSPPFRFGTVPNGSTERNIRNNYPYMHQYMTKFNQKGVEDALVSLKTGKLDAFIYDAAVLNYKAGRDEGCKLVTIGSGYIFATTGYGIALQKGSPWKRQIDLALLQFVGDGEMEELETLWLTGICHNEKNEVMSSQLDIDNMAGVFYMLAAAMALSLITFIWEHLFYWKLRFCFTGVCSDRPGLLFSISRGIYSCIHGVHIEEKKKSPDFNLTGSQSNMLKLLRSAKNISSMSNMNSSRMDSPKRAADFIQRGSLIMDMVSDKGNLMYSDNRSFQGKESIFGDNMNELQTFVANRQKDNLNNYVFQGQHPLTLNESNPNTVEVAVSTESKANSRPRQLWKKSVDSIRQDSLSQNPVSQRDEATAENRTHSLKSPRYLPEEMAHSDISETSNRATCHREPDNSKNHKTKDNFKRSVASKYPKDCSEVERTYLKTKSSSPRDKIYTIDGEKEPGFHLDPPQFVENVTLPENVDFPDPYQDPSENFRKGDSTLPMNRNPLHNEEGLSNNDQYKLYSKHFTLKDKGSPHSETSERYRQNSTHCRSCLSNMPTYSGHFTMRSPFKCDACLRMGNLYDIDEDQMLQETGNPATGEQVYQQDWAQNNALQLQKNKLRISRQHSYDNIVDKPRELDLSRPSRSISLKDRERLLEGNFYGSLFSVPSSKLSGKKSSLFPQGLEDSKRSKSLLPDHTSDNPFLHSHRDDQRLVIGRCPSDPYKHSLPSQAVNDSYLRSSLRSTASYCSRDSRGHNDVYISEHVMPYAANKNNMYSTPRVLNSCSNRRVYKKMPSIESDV
Description: as §1

Test [9] has as its target T4, Muscarinic acetylcholine receptor M1 (Homo sapiens, UniProt P11229).
T4 sequence (P11229 whole entry): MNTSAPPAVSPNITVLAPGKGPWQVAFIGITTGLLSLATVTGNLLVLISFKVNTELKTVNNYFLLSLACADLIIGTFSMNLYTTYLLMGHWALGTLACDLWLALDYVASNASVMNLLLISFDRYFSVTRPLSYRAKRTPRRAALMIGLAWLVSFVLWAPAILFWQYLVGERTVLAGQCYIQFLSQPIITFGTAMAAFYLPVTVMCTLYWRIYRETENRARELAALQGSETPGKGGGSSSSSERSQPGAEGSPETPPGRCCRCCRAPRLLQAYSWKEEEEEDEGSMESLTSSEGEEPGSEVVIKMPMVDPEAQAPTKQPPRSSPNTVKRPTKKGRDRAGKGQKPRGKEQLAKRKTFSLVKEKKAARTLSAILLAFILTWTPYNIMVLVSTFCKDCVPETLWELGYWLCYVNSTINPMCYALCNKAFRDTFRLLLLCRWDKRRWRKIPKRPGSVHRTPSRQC
Description: as §1

The target in the next test is D(2) dopamine receptor (Homo sapiens, UniProt P14416).
D(2) dopamine receptor, sequence (P14416 whole entry): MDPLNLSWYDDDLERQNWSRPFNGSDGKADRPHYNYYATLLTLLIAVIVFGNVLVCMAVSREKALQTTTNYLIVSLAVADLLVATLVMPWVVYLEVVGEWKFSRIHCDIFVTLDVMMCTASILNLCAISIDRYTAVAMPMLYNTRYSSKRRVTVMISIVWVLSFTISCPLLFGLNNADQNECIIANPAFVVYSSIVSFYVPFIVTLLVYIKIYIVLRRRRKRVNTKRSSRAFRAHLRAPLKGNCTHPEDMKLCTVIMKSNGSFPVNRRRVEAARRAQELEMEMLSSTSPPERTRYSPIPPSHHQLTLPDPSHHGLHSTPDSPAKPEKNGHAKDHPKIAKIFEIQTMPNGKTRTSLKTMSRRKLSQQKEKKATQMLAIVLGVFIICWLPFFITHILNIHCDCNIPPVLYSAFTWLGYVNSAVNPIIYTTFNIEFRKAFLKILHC
Description: as §1

Test [10] addresses 5-hydroxytryptamine receptor 1B (Homo sapiens, UniProt P28222).
Description: as §1

As usually defined, the Ki is a measure of affinity in units of concentration, obtained from inhibition or displacement. Read a high Ki as weaker binding.

5-hydroxytryptamine receptor 1B, sequence (P28222 whole entry): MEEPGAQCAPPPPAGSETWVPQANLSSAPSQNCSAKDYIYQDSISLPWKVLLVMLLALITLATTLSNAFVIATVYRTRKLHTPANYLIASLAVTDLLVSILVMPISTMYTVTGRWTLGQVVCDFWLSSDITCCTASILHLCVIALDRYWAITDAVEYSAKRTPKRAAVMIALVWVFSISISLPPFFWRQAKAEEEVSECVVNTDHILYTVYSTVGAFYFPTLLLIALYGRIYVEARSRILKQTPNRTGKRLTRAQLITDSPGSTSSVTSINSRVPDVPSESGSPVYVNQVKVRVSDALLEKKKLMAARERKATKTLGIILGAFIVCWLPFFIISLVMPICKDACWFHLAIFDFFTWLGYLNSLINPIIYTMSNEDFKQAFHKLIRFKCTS
Sodium-dependent serotonin transporter, sequence (P31645 whole entry): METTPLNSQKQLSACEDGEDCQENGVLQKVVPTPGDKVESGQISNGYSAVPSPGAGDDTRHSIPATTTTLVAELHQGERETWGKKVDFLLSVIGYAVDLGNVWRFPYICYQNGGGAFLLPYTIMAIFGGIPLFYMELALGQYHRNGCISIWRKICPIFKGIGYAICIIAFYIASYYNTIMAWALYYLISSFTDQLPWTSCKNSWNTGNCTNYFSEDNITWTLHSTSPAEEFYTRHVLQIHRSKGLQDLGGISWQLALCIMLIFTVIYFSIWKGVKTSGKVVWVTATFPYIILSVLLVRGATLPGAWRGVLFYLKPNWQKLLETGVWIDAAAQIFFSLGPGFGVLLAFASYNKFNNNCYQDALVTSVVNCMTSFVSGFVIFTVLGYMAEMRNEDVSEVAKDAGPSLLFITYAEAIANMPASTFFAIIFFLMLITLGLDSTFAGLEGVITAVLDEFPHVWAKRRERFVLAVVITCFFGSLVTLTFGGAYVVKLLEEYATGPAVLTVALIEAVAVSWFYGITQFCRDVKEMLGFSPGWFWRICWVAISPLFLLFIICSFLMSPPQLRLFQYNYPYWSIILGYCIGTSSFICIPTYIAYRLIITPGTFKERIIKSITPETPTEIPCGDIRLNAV

Turning to `CCOc1cc(OC)c(CC(C)N)cc1OC` (centres undefined), the Ki (at D(4) dopamine receptor; in test [1]; in test [2]; in test [3]; at Histamine H4 receptor; on Histamine H1 receptor) was greater than 10 µM each time. For the same compound, the inhibition constant Ki in [4], in test [5], in [6], in test [7], in test [8] and in test [9] was greater than 10 µM in each case. The inhibition constant (Ki) (at D(2) dopamine receptor; in test [10]) was greater than 10 µM each time.
In the case of `COc1cc(CCN)c(OC)cc1Br`, the Ki on D(4) dopamine receptor is greater than 10 µM; in test [1] it was greater than 10 µM; in test [2] it was greater than 10 µM; in test [3], 0.0263 µM; on Histamine H4 receptor, greater than 10 µM; at Histamine H1 receptor, greater than 10 µM. The inhibition constant (Ki) in test [4], in [5], in test [6], in test [7], in [8] and in test [9] was greater than 10 µM throughout. The Ki is 3.37 µM at D(2) dopamine receptor and 0.104 µM in test [10].
`CCSc1cc(OC)c(CC(N)CC)cc1OC` (centres undefined) [1-(4-Ethylsulfanyl-2,5-dimethoxy-benzyl)-propylamine]: the inhibition constant Ki (on D(4) dopamine receptor; in test [1]; in test [2]; in [3]; at Histamine H4 receptor; at Histamine H1 receptor) was greater than 10 µM throughout. Moreover, the Ki in test [4] is greater than 10 µM; in test [5], greater than 10 µM; in test [6] it was greater than 10 µM; in test [7] it was 1.59 µM; in test [8] it was greater than 10 µM; in [9], greater than 10 µM. In addition, the Ki (on D(2) dopamine receptor; in [10]) was greater than 10 µM throughout.
As to `CCc1cc(OC)c(CCN)cc1OC` [2-(2,5-dimethoxy-4-ethylphenyl)ethylamine], the Ki at D(4) dopamine receptor was greater than 10 µM; in test [1], greater than 10 µM; in test [2], greater than 10 µM; in test [3], 0.0732 µM; on Histamine H4 receptor, greater than 10 µM; on Histamine H1 receptor it was greater than 10 µM. In addition, the inhibition constant Ki in test [4], in test [5], in test [6], in test [7], in [8] and in test [9] was greater than 10 µM each time. Besides, the results for the inhibition constant (Ki) (at D(2) dopamine receptor; in test [10]) were 3.34 µM and 0.253 µM, respectively.
As to `COc1cc(CC(C)N)c(OC)cc1Br` (stereo not drawn) [2-(4-Bromo-2,5-dimethoxy-phenyl)-1-methyl-ethylamine((-)-DOB)], the Ki is greater than 10 µM on D(4) dopamine receptor; greater than 10 µM in [1]; greater than 10 µM in test [2]; 0.635 µM in [3]; greater than 10 µM on Histamine H4 receptor; 9.12 µM on Histamine H1 receptor. The inhibition constant (Ki) was greater than 10 µM in [4]; 8.54 µM in test [5]; greater than 10 µM in [6]; 5.31 µM in test [7]; greater than 10 µM in test [8]; greater than 10 µM in [9]. The Ki on D(2) dopamine receptor was greater than 10 µM; in test [10], 0.941 µM.
Take `CCSc1cc(OC)c(CC(C)N)cc1OC` (centres undefined) [2-(4-Ethylsulfanyl-2,5-dimethoxy-phenyl)-1-methyl-ethylamine]: the Ki was greater than 10 µM on D(4) dopamine receptor; greater than 10 µM in [1]; greater than 10 µM in test [2]; 1.53 µM in test [3]; greater than 10 µM on Histamine H4 receptor; greater than 10 µM at Histamine H1 receptor. In addition, the inhibition constant Ki in test [4] was greater than 10 µM; in [5], 1.32 µM; in [6], greater than 10 µM; in test [7] it was greater than 10 µM; in test [8], greater than 10 µM; in test [9], greater than 10 µM. The values for the Ki (on D(2) dopamine receptor; in test [10]) were greater than 10 µM and 2.04 µM, respectively.
Regarding `CCc1[nH]c2ccc(OC)cc2c1CCN(C)C` [2-ethyl-5-methoxy-N,N-dimethyltryptamine], the inhibitory constant (Ki) (at D(4) dopamine receptor; in test [1]; on Histamine H4 receptor; on Histamine H1 receptor; in test [6]; in test [8]) was greater than 10 µM each time. Further, the Ki (in [9]; at D(2) dopamine receptor; in [10]) was greater than 10 µM in each case.
For the compound `CCSc1cc(OC)c(CCN)cc1OC` [2C-T-2], the Ki is greater than 10 µM at D(4) dopamine receptor; greater than 10 µM in [1]; greater than 10 µM in test [2]; 0.0859 µM in test [3]; greater than 10 µM on Histamine H4 receptor; greater than 10 µM at Histamine H1 receptor. The Ki in test [4], in test [5], in test [6], in test [7], in test [8] and in test [9] was greater than 10 µM throughout. Besides, the inhibition constant (Ki) on D(2) dopamine receptor was determined as 2.79 µM; in test [10], 0.858 µM.
With `CN(C)CCc1c[nH]c2cccc(O)c12` [4-hydroxy-N,N-dimethyltryptamine], the inhibitory constant (Ki) (on D(4) dopamine receptor; in [1]; in test [2]; on Histamine H4 receptor; at Histamine H1 receptor; in test [4]) was greater than 10 µM throughout. Also, the Ki in [5] is 0.852 µM; in [6] it was greater than 10 µM; in test [9], greater than 10 µM; at D(2) dopamine receptor, greater than 10 µM.
As for `COc1ccc2[nH]cc(CCN(C(C)C)C(C)C)c2c1` [5-meo-dipt], the Ki on D(4) dopamine receptor was greater than 10 µM; in test [1], greater than 10 µM; in [2], greater than 10 µM; in [3] it was 1.72 µM; at Histamine H4 receptor, greater than 10 µM; at Histamine H1 receptor it was greater than 10 µM. Besides, the Ki is greater than 10 µM in [4]; 2.53 µM in [5]; greater than 10 µM in test [6]; greater than 10 µM in [7]; greater than 10 µM in [8]; greater than 10 µM in [9]. At D(2) dopamine receptor, this compound displayed an inhibitory constant (Ki) greater than 10 µM.
`COc1ccc2[nH]c(C)c(CCN(C)C)c2c1` [[2-(5-Methoxy-2-methyl-1H-indol-3-yl)-ethyl]-dimethyl-amine (C2H2O)]: the inhibitory constant (Ki) (on D(4) dopamine receptor; in test [1]; at Histamine H4 receptor; on Histamine H1 receptor; in [6]; in test [8]) was greater than 10 µM throughout. The Ki (in [9]; on D(2) dopamine receptor; in test [10]) was greater than 10 µM in each case.

The record behind these values is BindingDB's records for PubMed 20126400 (University of Oklahoma, 2010).
